{"source": "patent US5302610A", "about": "“Renal-selective biphenylmethyl imidazole angiotensin II antagonists for treatment of hypertension” (G. D. Searle & Co., priority 1991, dated 1994)", "key": {"[1]": {"settings": "in vivo; cited from earlier work"}, "angiotensin II": {"system": "angiotensin II", "settings": "binding experiments, functional assays and in vivo tests; cited from earlier work"}, "guanylate cyclase": {"system": "guanylate cyclase", "settings": "cited from earlier work"}, "[2]": {"system": "spontaneously hypertensive rats (SHR)", "test": "Assay D: Mean Arterial Pressure, chronic infusion of conjugate", "type": "in vivo", "protocol": "(§1) This in vivo experiment was conducted to characterize the effects of the Example 81 conjugate on spontaneously hypertensive rats (SHR) by acute administration i.v. and by chronic administration i.v. The Example 81 compound or saline vehicle was infused continuously for four days in SHR. Mean arterial pressure was measured (Gould Chart Recorder, model 3800; Statham P23Db pressure transducer) via an indwelling femoral artery catheter between 10:00 A. M. and 2:00 P. M. each day. The Example 81 conjugate (10 mg/hr) or saline was infused via a jugular vein catheter with a Harvard infusion pump. […] A test was conducted to determine whether the Example 81 conjugate would antagonize non-renal, vascular angiotensin II receptors. In this test AII was administered by bolus injection (100 ng/kg) to the SHR rats (described above) on the control day and on days 1, 2 and 3 during conjugate infusion."}, "[3]": {"system": "non-renal, vascular angiotensin II receptors", "test": "Assay D: AII Pressor Response during chronic infusion of conjugate", "type": "in vivo, spontaneously hypertensive rats (SHR)", "settings": "for AII Pressor Response (MAP): AII 100 ng/kg bolus", "protocol": "as §1"}, "[4]": {"system": "response to angiotensin II (urinary sodium excretion)", "test": "Assay E: Urinary Sodium Excretion, acute administration with AII infusion", "type": "in vivo, male Sprague-Dawley rats, conscious", "settings": "for Urinary Sodium Excretion: means±SE", "protocol": "(§2) antagonist compound (Ex. #5) and a glutamyl conjugate (Ex. #81) of the Ex. #5 AII antagonist compound to determine the renal selectivity of the conjugate. Male Sprague-Dawley rats (300-350 g body weight) had catheters implanted into the femoral artery and vein under chloral hydrate anesthesia (400 mg/kg, i.p.). After 2 to 4 days of recovery, on the experimental day, a urinary bladder catheter was implanted under methohexital anesthesia (50 mg/kg, i.p.). Rats were placed in a restraint device to allow for urine collection and mean arterial pressure measurements. After 1-2 hours of recovery, in conscious rats, an isotonic saline infusion (50 μl/min) was started and continued for the duration of the experiment. After one hour equilibration to the saline infusion, a 20 minute control urine and mean arterial pressure collection were obtained. Then angiotensin II was infused at 20 ng/min for 25 minutes. After 5 minutes of angiotensin II infusion, a 20 minute experimental collection was made. Finally, 5 minutes after the end of angiotensin II infusion, a 20 minute recovery collection was obtained. In separate groups of rats, vehicle (0.3 ml isotonic saline, i.v. bolus), Example #5 angiotensin II antagonist compound (100 mg/kg, i.v. bolus), or Example #81 conjugate (100 mg/kg, i.v. bolus) was administered 1-2 minutes prior to onset of angiotensin II infusion. […] Results are shown in Tables XIII and XIV and also in FIGS. 3 and 4. Data are presented as means±SE. Repeated measures analysis of variance was used for main effects and interactions and Tukey's HSD test was used for pairwise comparisons among means. Statistical significance was defined as p<0.05."}, "[5]": {"system": "response to angiotensin II (mean arterial pressure)", "test": "Assay E: Mean Arterial Pressure, acute administration with AII infusion", "type": "in vivo, male Sprague-Dawley rats, conscious", "settings": "for Mean Arterial Pressure: n = 6, means±SE", "protocol": "as §2"}, "[6]": {"system": "γ-glutamyl transpeptidase", "settings": "dogs; cited from earlier work"}, "angiotensin II receptors": {"system": "angiotensin II receptors", "settings": "cited from earlier work"}, "kidney": {"system": "kidney", "settings": "normal subjects; cited from earlier work"}, "dopa-decarboxylase": {"system": "dopa-decarboxylase", "settings": "in vivo; cited from earlier work"}, "[7]": {"settings": "Control day (baseline before infusion)"}, "[8]": {"settings": "100 mg/kg i.v. bolus, Recovery after AII infusion"}, "[9]": {"settings": "100 mg/kg i.v. bolus, during AII infusion 20 ng/min, * in table"}, "[10]": {"settings": "100 mg/kg, i.v. bolus, AII 20 ng/min"}}}
{"compound": "CCCCc1ccc(NNC(=O)CCC(NC(C)=O)C(=O)O)nc1", "note": "(stereo not drawn)", "values": [{"measurement": "renal vasodilation", "setting": "[1]", "result": "provided selective renal vasodilation"}]}
{"compound": "CCCCc1nc(Cl)c(CC(=O)O)n1Cc1ccccc1[N+](=O)[O-]", "note": "[2-butyl-4-choloro-1-(2-nitrobenzyl)imidazole-5-acetic acid]", "values": [{"measurement": "angiotensin II antagonist activity", "setting": "angiotensin II", "result": "specific competitive angiotensin II antagonist activity"}]}
{"compound": "CCCCc1ccc(NN)nc1", "note": "[2-hydrazino-5-n-butylpyridine]", "values": [{"measurement": "guanylate cyclase activity", "setting": "guanylate cyclase", "result": "stimulates guanylate cyclase activity"}]}
{"compound": "CCCCc1nc(Cl)c(CC(=O)O)n1Cc1ccccc1Cl", "note": "[2-n-butyl-4-chloro-1-(2-chlorobenzyl)imidazole-5-acetic acid]", "values": [{"measurement": "angiotensin II antagonist activity", "setting": "angiotensin II", "result": "specific competitive angiotensin II antagonist activity"}]}
{"compound": "CCCCc1nc(Cl)c(CO)n1Cc1ccc(-c2ccccc2C(=O)NNC(=O)CC[C@H](NC(C)=O)C(=O)O)cc1", "note": "[Example 81, N-acetyl-L-glutamic acid, 5-[[4'-[2-butyl-4-chloro-5-(hydroxymethyl)-1H-imidazol-1-ylmethyl][1,1'-biphenyl]-2-yl]carbonyl]hydrazide]", "values": [{"measurement": "mean arterial pressure as compared to saline vehicle control", "setting": "[2]; 10 mg/hr i.v. infusion, SHR", "result": "lowered mean arterial pressure as compared to the saline vehicle control"}, {"measurement": "Mean Arterial Pressure (MAP)", "setting": "[2]; 10 mg/hr i.v. infusion, day 1", "result": 148, "unit": "mm Hg"}, {"measurement": "Mean Arterial Pressure (MAP)", "setting": "[2]; 10 mg/hr i.v. infusion, day 2", "result": 135, "unit": "mm Hg"}, {"measurement": "Mean Arterial Pressure (MAP)", "setting": "[2]; 10 mg/hr i.v. infusion, day 3", "result": 140, "unit": "mm Hg"}, {"measurement": "Mean Arterial Pressure (MAP)", "setting": "[2]; [7]", "result": 163, "unit": "mm Hg"}, {"measurement": "systemic angiotensin II receptor antagonism", "setting": "[3]; 10 mg/hr i.v. infusion, days 1, 2 and 3", "result": "No evidence for systemic angiotensin II receptor antagonism was observed"}, {"measurement": "AII Pressor Response (MAP)", "setting": "[3]; 10 mg/hr i.v. infusion, day 1", "result": 45, "unit": "mm Hg"}, {"measurement": "AII Pressor Response (MAP)", "setting": "[3]; 10 mg/hr i.v. infusion, day 2", "result": 65, "unit": "mm Hg"}, {"measurement": "AII Pressor Response (MAP)", "setting": "[3]; 10 mg/hr i.v. infusion, day 3", "result": 60, "unit": "mm Hg"}, {"measurement": "AII Pressor Response (MAP)", "setting": "[3]; [7]", "result": 44, "unit": "mm Hg"}, {"measurement": "Urinary Sodium Excretion", "setting": "[4]; [8]", "result": "1.8 ± 0.4", "unit": "μEq/min/100 g BW"}, {"measurement": "Urinary Sodium Excretion", "setting": "[4]; [9]", "result": "4.1 ± 1.3", "unit": "μEq/min/100 g BW"}, {"measurement": "antinatriuretic (urinary sodium excretion) response to angiotensin II", "setting": "[4]; [10]", "result": "prevented the antinatriuretic response to angiotensin II"}, {"measurement": "urinary sodium excretion during angiotensin II infusion", "setting": "[4]; [10]", "result": "actually increased urinary sodium excretion"}, {"measurement": "Urinary Sodium Excretion", "setting": "[4]; Control period (before dosing)", "result": "1.3 ± 0.3", "unit": "μEq/min/100 g BW"}, {"measurement": "Mean Arterial Pressure", "setting": "[5]; [8]", "result": "121 ± 4", "unit": "mm Hg"}, {"measurement": "Mean Arterial Pressure", "setting": "[5]; [9]", "result": "151 ± 4", "unit": "mm Hg"}, {"measurement": "mean arterial pressure response to angiotensin II", "setting": "[5]; [10]", "result": "had no effect on the mean arterial pressure response"}, {"measurement": "Mean Arterial Pressure", "setting": "[5]; Control period (before dosing)", "result": "117 ± 3", "unit": "mm Hg"}]}
{"compound": "N[C@@H](CCC(=O)NCCc1ccc(O)c(O)c1)C(=O)O", "note": "[L-γ-glutamyl amide of dopamine]", "values": [{"measurement": "generation of dopamine in vivo", "setting": "[6]", "result": "generate dopamine in vivo by specific enzymatic cleavage by γ-glutamyl transpeptidase"}]}
{"compound": "CNCC(=O)N[C@@H](CCCN=C(N)N)C(=O)N[C@H](C(=O)N[C@@H](Cc1ccc(O)cc1)C(=O)N[C@H](C(=O)N[C@@H](Cc1cnc[nH]1)C(=O)N1CCC[C@H]1C(=O)N[C@@H](C)C(=O)O)C(C)C)C(C)C", "note": "[Saralasin]", "values": [{"measurement": "residual agonist activity", "setting": "angiotensin II receptors", "result": "have a significant residual agonist activity"}]}
{"compound": "N[C@@H](CCC(=O)N[C@@H](Cc1ccc(O)c(O)c1)C(=O)O)C(=O)O", "note": "[gludopa, γ-L-glutamyl-L-dopa]", "values": [{"measurement": "kidney specificity", "setting": "kidney", "result": "relatively specific for the kidney"}, {"measurement": "renal blood flow, glomerular filtration and urinary sodium excretion", "setting": "kidney", "result": "increase renal blood flow, glomerular filtration and urinary sodium excretion in normal subjects"}, {"measurement": "blockade of activity by the dopa-decarboxylase inhibitor carbidopa", "setting": "dopa-decarboxylase", "result": "activity can be blocked by the dopa-decarboxylase inhibitor carbidopa"}]}
{"compound": "angiotensin II: an octapeptide which is the primary active species of this system (DRVYIHPF; Angiotensin-2; UniProt P01019 25-32, looked up) [reference compound]", "values": [{"measurement": "effect of angiotensin II infusion on urinary sodium excretion", "setting": "[4]; AII 20 ng/min for 25 minutes", "result": "decreased urinary sodium excretion"}, {"measurement": "effect of angiotensin II infusion on mean arterial pressure", "setting": "[5]; AII 20 ng/min for 25 minutes", "result": "increased mean arterial pressure"}]}
